The structures appear in SMILES notation.

The target of this experiment is FcsSBP (Fucose Solute Binding Protein). As to the kind of experiment: isothermal titration calorimetry. More on the design: species or system Streptococcus pneumoniae. To be noted: 50 mM Tris HCl pH 7.5, 25 °C, one-site model. On the technique in general: Isothermal titration calorimetry measures the heat released or taken up as one component is titrated into another.

For the molecule `CC(=O)N[C@H]1[C@@H](O[C@H]2[C@@H](O)[C@@H](CO)OC(O)[C@@H]2O[C@@H]2O[C@@H](C)[C@@H](O)[C@@H](O)[C@@H]2O)O[C@H](CO)[C@H](O)[C@@H]1O` (some centres unmarked) [A-trisaccharide, GalNAcα1–3(Fucα1–2)Gal], the Ka (crystal structure of SeMet protein) is 1.01 (±0.16) × 10^6.
As to `C[C@@H]1O[C@@H](O[C@H]2C(O)O[C@H](CO)[C@H](O)[C@@H]2O[C@H]2O[C@H](CO)[C@H](O)[C@H](O)[C@H]2O)[C@@H](O)[C@H](O)[C@@H]1O` (some centres unmarked) [B-trisaccharide, Galα1–3(Fucα1–2)Gal], the Ka is recorded as 1.15 (±0.27) × 10^6.

These data come from publication PMC2911475 (Journal of molecular biology, 2009).
